Results on 16 compounds are retold here after PubChem BioAssay (NCI).

Some test systems named below: HCT-15 colon; HOP-92 NSCLC; M14 melanoma; MOLT-4 leukemia; SK-OV-3 ovarian; SNB-19 CNS; TK-10 renal; UACC-62 melanoma.
Holding throughout (assay): DTP human tumour cell line panel, 48 h

SMILES strings stand for the structures.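 Exposure lasted 48 hours, with cells grown in 96-well plates and compounds tested at five concentrations. GI50 is the concentration that inhibits growth by half. Definition used: TGI = concentration required for complete inhibition of growth.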

In general, TGI refers to the concentration giving total growth inhibition. A low value points to greater sensitivity of the cells. For the compound `Cc1cc2c(=O)cc(-c3ccc(O)cc3)oc2c(C(=O)O)c1C`, the TGI in the test with HCT-15 colon, in the test with HOP-92 NSCLC, in the test on M14 melanoma, in the test on MOLT-4 leukemia, in the test with SK-OV-3 ovarian and in the test with SNB-19 CNS was greater than 100 µM each time. The TGI with TK-10 renal and in the test with UACC-62 melanoma was greater than 100 µM each time.
As to `Cc1ccc(S(=O)OC2c3ccccc3Cc3ccccc32)cc1` (stereo not given), the TGI is 44.5 µM in the test on HCT-15 colon; 36.5 µM in the test with HOP-92 NSCLC; 33.8 µM with M14 melanoma; 75.7 µM with MOLT-4 leukemia; 41.9 µM in the test with SK-OV-3 ovarian; 59 µM with SNB-19 CNS. Besides, the TGI amounted to 64.3 µM in the test with TK-10 renal and 31.8 µM in the test with UACC-62 melanoma.
On to `S=C1NC(c2ccccc2)=NC(Cc2ccccc2)(c2ccccc2)N1c1ccccc1` (stereo not given), for which the TGI in the test on HCT-15 colon, with HOP-92 NSCLC, in the test with M14 melanoma, with MOLT-4 leukemia, in the test with SNB-19 CNS and in the test on TK-10 renal was greater than 100 µM in each case. This compound registered a TGI in the test with UACC-62 melanoma greater than 100 µM.
Consider `CN(CC(=O)O)S(=O)(=O)c1ccc(Cl)cc1`, for which the TGI in the test with HCT-15 colon, with HOP-92 NSCLC, in the test on M14 melanoma, in the test with MOLT-4 leukemia, in the test with SK-OV-3 ovarian and in the test on SNB-19 CNS was greater than 100 µM throughout. For the same compound, the TGI in the test on TK-10 renal and in the test with UACC-62 melanoma was greater than 100 µM throughout.
For `S=c1sc2sc(=S)sc2s1`, the TGI was greater than 100 µM in the test on HCT-15 colon; greater than 100 µM in the test on HOP-92 NSCLC; 59 µM with M14 melanoma; greater than 100 µM with MOLT-4 leukemia; 33.9 µM in the test with SK-OV-3 ovarian; greater than 100 µM in the test on SNB-19 CNS. In addition, the total growth inhibition concentration (TGI) with TK-10 renal and in the test with UACC-62 melanoma was greater than 100 µM throughout.
For `COC(=O)CCC(=O)C(CC(=O)OC)C(=O)CCC(=O)NCCc1ccccc1` (stereo not given), the TGI in the test on HCT-15 colon, in the test on HOP-92 NSCLC, with M14 melanoma, with MOLT-4 leukemia, in the test on SK-OV-3 ovarian and with SNB-19 CNS was greater than 100 µM in each case. The TGI with TK-10 renal and in the test with UACC-62 melanoma was greater than 100 µM each time.
For orientation: GI50 means the concentration that inhibits growth by half. Regarding `O=C([CH-]C(=O)c1ccccc1)c1ccccc1.O=C([CH-]C(=O)c1ccccc1)c1ccccc1.[CH2-]CCC.[CH2-]CCC.[Sn+4]`, the GI50 is 0.636 µM in the test with HCT-15 colon; 0.394 µM in the test on M14 melanoma; 0.253 µM in the test on MOLT-4 leukemia; 0.441 µM in the test with SNB-19 CNS; 0.38 µM in the test on TK-10 renal; 0.558 µM in the test with UACC-62 melanoma. Moreover, the TGI was 2.14 µM in the test on HCT-15 colon; 1.59 µM in the test with M14 melanoma; 0.754 µM in the test with MOLT-4 leukemia; 1.67 µM in the test on SNB-19 CNS; 1.11 µM in the test on TK-10 renal; 1.83 µM in the test on UACC-62 melanoma.
Regarding `CN1C[C@@H]2CC(=O)CC[C@@H]2C[C@H]1C#N`, the TGI in the test with HCT-15 colon, in the test on HOP-92 NSCLC, in the test with M14 melanoma, with MOLT-4 leukemia, in the test with SK-OV-3 ovarian and in the test on SNB-19 CNS was greater than 100 µM each time. This compound also came in with a TGI in the test with UACC-62 melanoma greater than 100 µM.
With `CC1=CC=C2C(C)(C)CC[C@@H]3OC(=O)[C@H]1[C@]23C`, the total growth inhibition concentration (TGI) in the test with HOP-92 NSCLC, with M14 melanoma, in the test on MOLT-4 leukemia, with SK-OV-3 ovarian, with SNB-19 CNS and in the test with TK-10 renal was greater than 100 µM each time. For the same compound, the TGI with UACC-62 melanoma was greater than 100 µM.
As to `COC(=O)c1oc([N+](=O)[O-])c(-c2ccccc2)c1-c1ccccc1`, the TGI with HOP-92 NSCLC, in the test with M14 melanoma, in the test on MOLT-4 leukemia, with SK-OV-3 ovarian, in the test on SNB-19 CNS and in the test on TK-10 renal was greater than 100 µM in each case. For the same compound, the concentration for total growth inhibition (TGI) in the test on UACC-62 melanoma is greater than 100 µM.
With `Cc1ccccc1C(C#N)/C(=N/NC(N)=S)C(=O)Nc1c(C)cccc1C` (stereo not given), the TGI in the test with HOP-92 NSCLC, in the test on M14 melanoma, in the test on MOLT-4 leukemia, in the test on SNB-19 CNS, in the test on TK-10 renal and with UACC-62 melanoma was greater than 100 µM in each case.
For the compound `O=C1C2=C(c3ccccc31)C(c1ccccc1Cl)NC(=S)N2` (stereo not given), the TGI is greater than 100 µM with HCT-15 colon; 68.4 µM in the test on HOP-92 NSCLC; greater than 100 µM with M14 melanoma; greater than 100 µM in the test on MOLT-4 leukemia; greater than 100 µM in the test with SK-OV-3 ovarian; greater than 100 µM in the test on SNB-19 CNS. The TGI in the test with TK-10 renal and in the test on UACC-62 melanoma was greater than 100 µM throughout.
`CN1C(=O)CNS1(=O)=O`: the TGI with HCT-15 colon, in the test on HOP-92 NSCLC, in the test with M14 melanoma, in the test on MOLT-4 leukemia, in the test on SK-OV-3 ovarian and in the test on SNB-19 CNS was greater than 100 µM in each case. The TGI in the test with TK-10 renal and in the test on UACC-62 melanoma was greater than 100 µM in each case.
On to `Cc1ccc(NC(=O)CC2SC(=Nc3cccc(Cl)c3C)NC2=O)cc1` (stereo not given), for which the TGI in the test on HCT-15 colon, in the test on M14 melanoma, in the test on MOLT-4 leukemia, in the test with SK-OV-3 ovarian, in the test on SNB-19 CNS and in the test with TK-10 renal was greater than 100 µM each time. The compound also gave a concentration for total growth inhibition (TGI) in the test with UACC-62 melanoma greater than 100 µM.
In the case of `O=C(O)COc1ccc2c3c1C(=O)CCC3CO2` (stereo not given), the TGI in the test with HCT-15 colon, with HOP-92 NSCLC, with M14 melanoma, in the test with MOLT-4 leukemia, in the test on SK-OV-3 ovarian and in the test on SNB-19 CNS was greater than 100 µM each time. Also, the TGI in the test on TK-10 renal and with UACC-62 melanoma was greater than 100 µM each time.
For the compound `N#CCC(=O)N/N=C(/C(=O)Nc1ccccc1)C1C(=O)N(c2ccccc2)N=C1N` (stereo not given), the TGI with HCT-15 colon, with HOP-92 NSCLC, with M14 melanoma, with MOLT-4 leukemia, in the test on SK-OV-3 ovarian and with SNB-19 CNS was greater than 100 µM each time. For the same compound, the TGI in the test on TK-10 renal and in the test with UACC-62 melanoma was greater than 100 µM throughout.
